This is an account of results in publication PMC8303963, “Action of Multiple Rice β-Glucosidases on Abscisic Acid Glucose Ester” (International Journal of Molecular Sciences, 2021).

Molecules are shown by their SMILES.

This assay deals with T1, Os9BGlu31 (Oryza sativa, UniProt B7F7K7).
T1 construct: gene BGLU31; recombinant from E. coli, IMAC purified
T1 sequence (B7F7K7 23-523): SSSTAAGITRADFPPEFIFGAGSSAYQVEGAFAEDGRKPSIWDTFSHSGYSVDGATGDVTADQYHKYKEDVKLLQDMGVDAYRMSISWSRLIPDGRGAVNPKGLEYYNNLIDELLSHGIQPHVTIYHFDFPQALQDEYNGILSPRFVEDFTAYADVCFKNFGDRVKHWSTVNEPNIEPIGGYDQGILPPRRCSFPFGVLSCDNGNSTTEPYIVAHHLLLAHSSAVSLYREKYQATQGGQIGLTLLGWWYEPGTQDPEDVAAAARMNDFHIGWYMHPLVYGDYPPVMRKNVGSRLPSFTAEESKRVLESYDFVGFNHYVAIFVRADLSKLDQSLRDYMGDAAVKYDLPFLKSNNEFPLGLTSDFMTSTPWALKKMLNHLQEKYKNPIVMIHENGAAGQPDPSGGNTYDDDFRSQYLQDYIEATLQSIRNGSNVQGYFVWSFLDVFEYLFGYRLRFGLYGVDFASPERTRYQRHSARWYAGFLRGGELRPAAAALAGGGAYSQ
The assay can be described thus: preparative transglucosylation, product by NMR and UHPLC. The assay is classed as biochemical. The note with it: glucose acceptor; 10 mM ABA, 10 mM pNPGlc as donor, citrate buffer pH 4.5, 37 °C overnight.

Regarding `CC1=CC(=O)CC(C)(C)[C@@]1(O)/C=C/C(C)=C\C(=O)O` [ABA], the “preparative transglucosylation, product by NMR and UHPLC” value is “used to transfer glucose from pNPGlc to ABA to generate ABA-GE”.
